Data from patent US20080207694A1, “Hydroxamates as Histone Deacetylase Inhibitors and Pharmaceutical Formulations Containing Them” (priority 2005, published 2008).

Tests used:
[1] = system: histone deacetylase (HDAC), nuclear extract of Hela cells; assay: Deacetylase activity on nuclear extract of HeLa cells (Fluor de Lys kit); format: biochemical, human; conditions: percent inhibition relative to control without inhibitor, compound at 0.1 μM
Procedure: (§1) The activity of the compounds as histone deacetylase (HDAC) inhibitors was measured using an in vitro acetylation assay. The compounds were then evaluated as inhibitors of proliferation of human tumor cell cultures.
Deacetylase Activity on Nuclear Extract of Hela Cells (Human Cervical Cancer Cell)
The assay (Fluor de Lys™ kit, BioMol) is divided into two steps: in the first step the substrate which comprises an acetylated lysine residue is reacted with the nuclear extract (HeLa) containing the enzymatic activity in the presence and absence of inhibitors. In the second step a fluorogenic reagent is added which highlights the deacetylated residues. A reduction in fluorescence is obtained where there has been inhibition of the deacetylase activity. The result is finally expressed as percent inhibition relative to the control without inhibitor at a concentration of 0.1 μM.

[2] = system: Human colon carcinoma cells HCT-116; assay: Cytotoxic activity on culture of human colon carcinoma cells HCT-116 (Alamar Blue); format: cell-based; conditions: HCT-116 cells, 72 hours after addition of compounds, Alamar Blue viability
Procedure: as §1
24 hours after seeding, the compounds at different concentrations are added. […] 72 hours after addition of the compounds, cell viability is measured by means of the dye Alamar Blue.

N[C@@H](CC(=O)N1CCC(CCCC(=O)NO)CC1)c1ccc2ccccc2c1 [Ex 149, 4-[1-(3-(S)-Amino-3-naphthalen-2-yl-propionyl)-piperidin-4-yl]-N-hydroxy-butyramide]
% inhib. 0.1 μM [1]: 62%
IC50 [2]: 130 nM

O=C(CCCC1CCN(C(=O)Nc2cccc(-c3ccccc3)c2)CC1)NO [Ex 150, 4-(3-Hydroxycarbamoyl-propyl)-piperidine-1-carboxylic acid biphenyl-3-ylamide]
% inhib. 0.1 μM [1]: 57%
IC50 ([2]; Homo sapiens, HCT-116, 72 h): 180 nM

O=C(CCCC1CCN(C(=O)Nc2ccc(-c3ccccn3)cc2)CC1)NO [Ex 151, 4-(3-Hydroxycarbamoyl-propyl)-piperidine-1-carboxylic acid (4-pyridin-2-yl-phenyl)-amide]
% inhib. 0.1 μM [1]: 50%
IC50 ([2]; Homo sapiens, HCT-116, 72 h): 100 nM

N[C@H](CC(=O)N1CCC(CCCC(=O)NO)CC1)Cc1cccc2ccccc12 [Ex 154, 4-[1-(3-(S)-Amino-4-naphthalen-1-yl-butyryl)-piperidin-4-yl]-N-hydroxy-butyramide]
% inhib. 0.1 μM [1]: 82%
IC50 ([2]; Homo sapiens, HCT-116, 72 h): 530 nM

O=C(CCCC1CCN(C(=O)NCc2csc3ccccc23)CC1)NO [Ex 157, N-(benzo[b]thiophen-3-ylmethyl)-4-(4-(hydroxyamino)-4-oxobutyl)piperidine-1-carboxamide]
% inhib. 0.1 μM [1]: 68%
IC50 ([2]; Homo sapiens, HCT-116, 72 h): 600 nM

N[C@@H](CC(=O)N1CCC(CCCC(=O)NO)CC1)c1cccc2ccccc12 [Ex 158, 4-[1-(3-(S)-Amino-3-naphthalen-1-yl-propionyl)-piperidin-4-yl]-N-hydroxy-butyramide]
% inhib. 0.1 μM [1]: 60%
IC50 ([2]; Homo sapiens, HCT-116, 72 h): 900 nM

N[C@H](CC(=O)N1CCC(CCCC(=O)NO)CC1)c1cccc2ccccc12 [Ex 159, 4-[1-(3-(R)-Amino-3-naphthalen-1-yl-propionyl)-piperidin-4-yl]-N-hydroxy-butyramide]
% inhib. 0.1 μM [1]: 79%
IC50 ([2]; Homo sapiens, HCT-116, 72 h): 200 nM

COc1c(NC(=O)N2CCC(CCCC(=O)NO)CC2)ccc2ccccc12 [Ex 160]
% inhib. 0.1 μM [1]: 67%
IC50 [2]: 200 nM

COc1cc2ccccc2cc1NC(=O)N1CCC(CCCC(=O)NO)CC1 [Ex 161]
% inhib. 0.1 μM [1]: 76%
IC50 [2]: 30 nM

O=C(CCCC1CCN(C(=O)CCNCc2ccccc2)CC1)NO [Ex 164, 4-[1-(3-Benzylamino-propionyl)-piperidin-4-yl]-N-hydroxy-butyramide]
% inhib. 0.1 μM [1]: 51%
IC50 ([2]; Homo sapiens, HCT-116, 72 h): 600 nM

O=C(CCCC1CCN(C(=O)Nc2ccc(-c3cccc(F)c3)cc2)CC1)NO [Ex 165, 4-(3-Hydroxycarbamoyl-propyl)-piperidine-1-carboxylic acid (3′-fluoro-biphenyl-4-yl)-amide]
% inhib. 0.1 μM [1]: 64%
IC50 ([2]; Homo sapiens, HCT-116, 72 h): 700 nM

N[C@@H](CC(=O)N1CCC(CCCC(=O)NO)CC1)c1cccc(Cl)c1 [Ex 168, 4-{1-[3-(S)-Amino-3-(3-chloro-phenyl)-propionyl]-piperidin-4-yl}-N-hydroxy-butyramide]
% inhib. 0.1 μM [1]: 55%
IC50 [2]: 90 nM

O=C(CCCC1CCN(C(=O)NCCCc2c[nH]c3ccccc23)CC1)NO [Ex 170, N-(3-(1H-indol-3-yl)propyl)-4-(4-(hydroxyamino)-4-oxobutyl)piperidine-1-carboxamide]
% inhib. 0.1 μM [1]: 51%
IC50 ([2]; Homo sapiens, HCT-116, 72 h): 200 nM

N[C@@H](CC(=O)N1CCC(CCCC(=O)NO)CC1)c1cccc(Cl)c1 [Ex 171, 4-{1-[3-(S)-Amino-3-(3-chloro-phenyl)-propionyl]-piperidin-4-yl}-N-hydroxy-butyramide]
% inhib. 0.1 μM [1]: 45%
IC50 [2]: 400 nM

N[C@@H](CC(=O)N1CCC(CCCC(=O)NO)CC1)c1cccc(F)c1 [Ex 175, 4-{1-[3-(S)-Amino-3-(3-fluoro-phenyl)-propionyl]-piperidin-4-yl}-N-hydroxy-butyramide]
% inhib. 0.1 μM [1]: 70%
IC50 ([2]; Homo sapiens, HCT-116, 72 h): 600 nM

O=C(CCCC1CCN(C(=O)Nc2ccc(-c3csnn3)cc2)CC1)NO [Ex 178, 4-(3-Hydroxycarbamoyl-propyl)-piperidine-1-carboxylic acid (4-[1,2,3]thiadiazol-4-yl-phenyl)-amide]
% inhib. 0.1 μM [1]: 45%
IC50 ([2]; Homo sapiens, HCT-116, 72 h): 300 nM

Cc1cc(C)n(-c2ccc(NC(=O)N3CCC(CCCC(=O)NO)CC3)cc2)n1 [Ex 179, 4-(3-Hydroxycarbamoyl-propyl)-piperidine-1-carboxylic acid [4-(3,5-dimethyl-pyrazol-1-yl)-phenyl]-amide]
% inhib. 0.1 μM [1]: 70%
IC50 ([2]; Homo sapiens, HCT-116, 72 h): 500 nM

Nc1ccc2cc(NC(=O)N3CCC(CCCC(=O)NO)CC3)ccc2c1 [Ex 181, N-(6-aminonaphthalen-2-yl)-4-(4-(hydroxyamino)-4-oxobutyl)piperidine-1-carboxamide]
% inhib. 0.1 μM [1]: 64%
IC50 ([2]; Homo sapiens, HCT-116, 72 h): 470 nM

O=C(CCCC1CCN(C(=O)CCNc2cccc3ccccc23)CC1)NO [Ex 186, 4-[1-(3-(1)Naphtylamino-propionyl)-piperidin-4-yl]-N-hydroxy-butyramide]
% inhib. 0.1 μM [1]: 81%
IC50 [2]: 360 nM

O=C(CCCC1CCN(C(=O)NCc2csc3ccc(Cl)cc23)CC1)NO [Ex 188, N-(5-Chloro-benzo[b]thiophen-3-ylmethyl)-4-(4-(hydroxyamino)-4-oxobutyl)piperidine-1-carboxamide]
% inhib. 0.1 μM [1]: 50%
IC50 ([2]; Homo sapiens, HCT-116, 72 h): 210 nM

O=C(CCCC1CCN(C(=O)NCc2ccc(-c3ccsc3)cc2)CC1)NO [Ex 190, N-(4-(thiophen-3-yl)benzyl)-4-(4-(hydroxyamino)-4-oxobutyl)piperidine-1-carboxamide]
% inhib. 0.1 μM [1]: 69%
IC50 ([2]; Homo sapiens, HCT-116, 72 h): 480 nM

O=C(CCCC1CCCN(C(=O)Nc2ccccc2)C1)NO (centres unmarked) [Ex 192, 3-(4-(hydroxyamino)-4-oxobutyl)-N-phenylpiperidine-1-carboxamide]
% inhib. 0.1 μM [1]: 68%
IC50 ([2]; Homo sapiens, HCT-116, 72 h): 600 nM

N[C@@H](CC(=O)N1CCC(CCCC(=O)NO)CC1)C(=O)NCc1ccccc1 [Ex 193, 2-(s)-Amino-N-benzyl-4-[4-(3-hydroxycarbamoyl-propyl)-piperidin-1-yl]-4-oxo-butyramide]
% inhib. 0.1 μM [1]: 50%
IC50 ([2]; Homo sapiens, HCT-116, 72 h): 900 nM

O=C(CCCC1CCN(C(=O)Nc2cc3ccccc3s2)CC1)NO [Ex 195, N-(benzo[b]thiophene)-4-(4-(hydroxyamino)-4-oxobutyl)piperidine-1-carboxamide]
% inhib. 0.1 μM [1]: 42%
IC50 [2]: 400 nM

O=C(CCCC1CCN(C(=O)Nc2cccc3c2CCCC3)CC1)NO [Ex 198, 4-(3-Hydroxycarbamoyl-propyl)-piperidine-1-carboxylic acid (5,6,7,8-tetrahydro-naphthalen-1-yl)-amide]
% inhib. 0.1 μM [1]: 77%
IC50 ([2]; Homo sapiens, HCT-116, 72 h): 400 nM
